These are literature values, as cited in US4898737A, “Controlled absorption pharmaceutical composition” (Elan Corporation plc, priority 1983, dated 1990).

SMILES strings stand for the structures.

Regarding `CC(C)NCC(O)COc1cccc2ccccc12` (stereo not drawn) [propranolol, 1-(isopropylamino)-3-(1-naphthyloxy)-2-propanol], the “time of peak plasma concentrations” value (after a single oral dose) is recorded as “one to two”. Where the note is “oral”, the metabolism entry was “extensively and rapidly metabolised”; the urinary excretion result is “excreted in the urine as free and conjugated propranolol and as metabolites”.
